The values that follow come from patent US20240246946A1, “MODULATORS OF TREX1” (Constellation Pharmaceuticals, Inc., priority 2021, published 2024).

Assay [1] addresses T1, full length mouse TREX1 (Mus musculus, UniProt Q91XB0).
T1 construct: N-terminally His-Tev tagged full length mouse TREX1; made in house; host or cells: E. coli
T1 sequence (Q91XB0 1-314): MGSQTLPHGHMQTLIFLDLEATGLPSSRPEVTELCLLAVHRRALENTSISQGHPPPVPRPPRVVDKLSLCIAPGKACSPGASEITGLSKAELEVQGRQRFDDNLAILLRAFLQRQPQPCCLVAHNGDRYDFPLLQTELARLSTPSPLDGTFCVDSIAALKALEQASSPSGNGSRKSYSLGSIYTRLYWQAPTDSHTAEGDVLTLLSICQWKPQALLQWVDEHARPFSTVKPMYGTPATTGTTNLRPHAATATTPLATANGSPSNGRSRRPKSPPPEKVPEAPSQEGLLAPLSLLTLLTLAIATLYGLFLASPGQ
In words: mTREX1 Biochemical Assay (fluorescence, dsDNA substrate degradation). As to conditions: biochemical, read-out: mTREX1 IC50. The procedure, abridged:
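Reaction run 18 h at 25° C. with 60 nM TEX615/quencher-labelled dsDNA and 6 pM mouse TREX1 in Tris buffer (pH 7.4, 5 mM MgCl2, 1.0% DMSO), enzyme having sat 4 h with compound across 10 concentrations. EDTA quench; substrate degradation measured as fluorescence increase.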

For assay [2], the target named is T2, full length human TREX1 (Homo sapiens, UniProt Q9NSU2).
T2 construct: N-terminally His-Tev tagged full length human TREX1; made in house; host or cells: E. coli
T2 sequence (Q9NSU2 1-314): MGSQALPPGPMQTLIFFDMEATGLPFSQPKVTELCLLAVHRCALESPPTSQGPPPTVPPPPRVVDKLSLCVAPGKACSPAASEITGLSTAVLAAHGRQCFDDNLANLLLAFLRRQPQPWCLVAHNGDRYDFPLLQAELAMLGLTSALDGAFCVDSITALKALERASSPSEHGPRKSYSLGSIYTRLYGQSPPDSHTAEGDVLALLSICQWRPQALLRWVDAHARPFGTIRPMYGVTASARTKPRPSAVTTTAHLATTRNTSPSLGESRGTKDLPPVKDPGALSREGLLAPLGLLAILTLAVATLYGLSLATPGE
In words: hTREX1 Biochemical Assay (fluorescence, dsDNA substrate degradation). The settings on record: biochemical, read-out: hTREX1 IC50. The procedure, abridged: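 Fluorescence rises as enzyme degrades a quenched TEX615-labelled dsDNA substrate (60 nM) in 50 mM Tris, 150 mM NaCl, 5 mM MgCl2, pH 7.4. Full-length His-Tev-tagged human TREX1, 4 pM, sits with compound 4 hours at 25° C before substrate; reaction 18 hours, stopped with EDTA.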

The target of assay [3] is T3, human TREX2 (residues M44-A279) (Homo sapiens, UniProt Q9BQ50).
T3 construct: human TREX2 (residues M44-A279, expressed in E. coli); made in house; host or cells: E. coli
T3 sequence (Q9BQ50 44-279 isoform Q9BQ50-1): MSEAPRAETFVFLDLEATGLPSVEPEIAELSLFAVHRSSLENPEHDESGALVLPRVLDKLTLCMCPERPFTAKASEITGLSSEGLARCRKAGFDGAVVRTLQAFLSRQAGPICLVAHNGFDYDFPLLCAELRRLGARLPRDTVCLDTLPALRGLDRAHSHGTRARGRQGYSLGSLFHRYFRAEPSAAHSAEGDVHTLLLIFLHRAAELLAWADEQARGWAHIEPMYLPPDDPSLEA
The experiment in a line: hTREX2 Biochemical Assay (fluorescence, dsDNA substrate degradation). As to conditions: biochemical selectivity for hTREX1 vs hTREX2. The procedure:
Degradation of the dsDNA liberates free fluorophore to produce a fluorescent signal. Specifically, 7.5 μL of N-terminally His-Tev tagged human TREX2 (residues M44-A279, expressed in E. coli and purified in house) in reaction buffer (50 mM Tris, 150 mM NaCl, 2 mM DTT, 0.1 mg/mL BSA, 0.01% (w/v) Tween-20, 5 mM MgCl2, pH 7.4) was added to a 384-well Black ProxiPlate Plus (PerkinElmer) which already contained compound (150 nL) at varying concentrations as a 10 point dose-response in DMSO. The plate was incubated at 25° C. for 4 hours. Reactions were initiated by adding 7.5 μL of dsDNA substrate (Strand A: 5′ TEX615/GCT AGG CAG 3′; Strand B: 5′ CTG CCT AGC/IAbRQSp (IDT)) in reaction buffer. Final concentrations were 50 pM TREX2, 60 nM dsDNA substrate in reaction buffer with 1.0% DMSO (v/v). After 18 hours at 25° C., reactions were quenched by the addition of 2 μL of 500 mM EDTA. Final concentrations in the quenched reaction mixture were 44 pM TREX2, 53 nM DNA and 59 mM EDTA in a volume of 17 μL. After a 5-minute incubation at room temperature, plates were read in an EnVision plate reader (PerkinElmer) measuring fluorescence at 615 nm following excitation w/570 nm light.

For the molecule `CC(c1nc(C(=O)Nc2cnoc2)c(O)c(=O)n1C)C(c1cn(C)cn1)c1ccccc1C#N` (single isomer, unassigned) [Example 39 D2E2], the IC50 is above 10 nM in assay [1] and 1 to 10 nM in assay [2]. In addition, in assay [3], the “hTREX1 vs hTREX2 selectivity” value was “C (C = >50 fold selective for hTREX1)”.

`Cn1cc(C(c2ccccc2C#N)C(c2nc(C(=O)Nc3cnoc3)c(O)c(=O)n2C)C(F)(F)F)cn1` (single isomer, unassigned) [Example 40 D2E2]: the 50% inhibitory concentration (IC50) in assay [1] and in assay [2] was above 10 nM in each case. Also, in assay [3], the “hTREX1 vs hTREX2 selectivity” value is recorded as “B (B = 25 to 50-fold selective for hTREX1)”.

On to `Cc1nn(C)cc1C(c1cc(F)ccc1C#N)C(c1nc(C(=O)Nc2cnoc2)c(O)c(=O)n1C)C(F)(F)F` (single isomer, unassigned) [Example 42 D2E1], for which the IC50 was above 10 nM in assay [1] and 1 to 10 nM in assay [2]. Further, the “hTREX1 vs hTREX2 selectivity” value in assay [3] is recorded as “B (B = 25 to 50-fold selective for hTREX1)”.

Consider `Cc1ncc(C(c2ccccc2Cl)C(C)c2nc(C(=O)Nc3cnoc3)c(O)c(=O)n2C)cn1` (single isomer, unassigned) [Example 44 D1E1], for which the IC50 in assay [1] and in assay [2] was above 10 nM throughout. For the same molecule, the “hTREX1 vs hTREX2 selectivity” value in assay [3] is “A (A = <25 fold selective for hTREX1)”.

`Cc1ncc(C(c2ccccc2Cl)C(C)c2nc(C(=O)Nc3cnoc3)c(O)c(=O)n2C)cn1` (single isomer, unassigned) [Example 44 D2E2]: the half-maximal inhibitory concentration (IC50) in assay [1] and in assay [2] was above 10 nM in each case. The “hTREX1 vs hTREX2 selectivity” value in assay [3] was “A (A = <25 fold selective for hTREX1)”.

Consider `CC(c1nc(C(=O)Nc2cnoc2)c(O)c(=O)n1C)C(c1ccccc1Cl)n1cccn1` (single isomer, unassigned) [Example 45 D1E2], for which the IC50 in assay [1] and in assay [2] was above 10 nM each time. Also, in assay [3], the “hTREX1 vs hTREX2 selectivity” value is on record as “A (A = <25 fold selective for hTREX1)”.

`CC(c1nc(C(=O)Nc2cnoc2)c(O)c(=O)n1C)C(c1cocn1)c1ccccc1C#N` (single isomer, unassigned) [Example 50 D2E1]: the IC50 in assay [1] and in assay [2] was above 10 nM each time. In addition, in assay [3], the “hTREX1 vs hTREX2 selectivity” value is recorded as “C (C = >50 fold selective for hTREX1)”.

For the molecule `CCn1cc(C(c2ccc(F)cc2C#N)C(C)c2nc(C(=O)Nc3cnoc3)c(O)c(=O)n2C)c(C)n1` (single isomer, unassigned) [Example 55 D1E1], the IC50 in assay [1] and in assay [2] was below 1 nM each time. Also, the “hTREX1 vs hTREX2 selectivity” value in assay [3] is “C (C = >50 fold selective for hTREX1)”.

In the case of `CCn1cc(C(c2ccc(F)cc2C#N)C(C)c2nc(C(=O)Nc3cnoc3)c(O)c(=O)n2C)c(C)n1` (single isomer, unassigned) [Example 55 D2E2], the IC50 is above 10 nM in assay [1] and 1 to 10 nM in assay [2]. Besides, in assay [3], the “hTREX1 vs hTREX2 selectivity” value is “C (C = >50 fold selective for hTREX1)”.

Take `Cc1nn(C)cc1C(c1ccc(F)cc1C#N)C(C)c1nc(C(=O)Nc2cnoc2)c(O)c(=O)n1C` (single isomer, unassigned) [Example 56 D1E1]: the IC50 in assay [1] and in assay [2] was below 1 nM each time. In addition, in assay [3], the “hTREX1 vs hTREX2 selectivity” value is “C (C = >50 fold selective for hTREX1)”.

As for `Cc1nn(C)cc1C(c1cc(F)ccc1C#N)C(C)c1nc(C(=O)Nc2cnoc2)c(O)c(=O)n1C` (single isomer, unassigned) [Example 57 D2E1], the half-inhibitory concentration (IC50) is above 10 nM in assay [1] and 1 to 10 nM in assay [2]. Also, the “hTREX1 vs hTREX2 selectivity” value in assay [3] was “C (C = >50 fold selective for hTREX1)”.

Turning to `CCn1cc(C(c2cc(F)ccc2Cl)C(C)c2nc(C(=O)Nc3cnoc3)c(O)c(=O)n2C)cn1` (single isomer, unassigned) [Example 60 D1E2], the IC50 in assay [1] is above 10 nM; in assay [2], 1 to 10 nM. In addition, the “hTREX1 vs hTREX2 selectivity” value in assay [3] is listed as “A (A = <25 fold selective for hTREX1)”.

For `CCn1cc(C(c2cc(F)ccc2Cl)C(C)c2nc(C(=O)Nc3cnoc3)c(O)c(=O)n2C)cn1` (single isomer, unassigned) [Example 60 D2E1], the IC50 in assay [1] and in assay [2] was above 10 nM throughout. Also, in assay [3], the “hTREX1 vs hTREX2 selectivity” value is “A (A = <25 fold selective for hTREX1)”.

As for `CCn1cc(C(c2cc(F)ccc2Cl)C(C)c2nc(C(=O)Nc3cnoc3)c(O)c(=O)n2C)cn1` (single isomer, unassigned) [Example 60 D2E2], the half-maximal inhibitory concentration (IC50) in assay [1] and in assay [2] was above 10 nM each time. Besides, the “hTREX1 vs hTREX2 selectivity” value in assay [3] was “A (A = <25 fold selective for hTREX1)”.

As for `Cc1cc(C(c2ccccc2C#N)C(C)c2nc(C(=O)Nc3cnoc3)c(O)c(=O)n2C)n(C)n1` (single isomer, unassigned) [Example 63 D1E2], the concentration for half-maximal inhibition (IC50) in assay [1] is above 10 nM; in assay [2], 1 to 10 nM. The “hTREX1 vs hTREX2 selectivity” value in assay [3] is recorded as “C (C = >50 fold selective for hTREX1)”.

With `Cc1cn(C)nc1C(c1ccccc1C#N)C(C)c1nc(C(=O)Nc2cnoc2)c(O)c(=O)n1C` (single isomer, unassigned) [Example 64 D2E1], the values for the half-inhibitory concentration (IC50) in assay [1] and in assay [2] were 1 to 10 nM and below 1 nM, respectively. The “hTREX1 vs hTREX2 selectivity” value in assay [3] is on record as “C (C = >50 fold selective for hTREX1)”.

Turning to `CCn1ncc(C(c2ccc(F)cc2C#N)C(C)c2nc(C(=O)Nc3cnoc3)c(O)c(=O)n2C)c1C` (single isomer, unassigned) [Example 65 D2E1], the results for the IC50 in assay [1] and in assay [2] were above 10 nM and 1 to 10 nM, respectively. The “hTREX1 vs hTREX2 selectivity” value in assay [3] is given as “C (C = >50 fold selective for hTREX1)”.

As for `CC(c1nc(C(=O)Nc2cnoc2)c(O)c(=O)n1C)C(c1cnccn1)c1ccccc1C#N` (single isomer, unassigned) [Example 66 D1E1], the IC50 in assay [1] and in assay [2] was below 1 nM in each case. Besides, the “hTREX1 vs hTREX2 selectivity” value in assay [3] was “B (B = 25 to 50-fold selective for hTREX1)”.

For the molecule `CCn1ncc(C(c2ccccc2C#N)C(C)c2nc(C(=O)Nc3cnoc3)c(O)c(=O)n2C)c1C` (single isomer, unassigned) [Example 68 D2E1], the IC50 is above 10 nM in assay [1] and below 1 nM in assay [2]. Besides, the “hTREX1 vs hTREX2 selectivity” value in assay [3] is given as “B (B = 25 to 50-fold selective for hTREX1)”.

As to `COCCn1ncc(C(c2ccccc2C#N)C(C)c2nc(C(=O)Nc3cnoc3)c(O)c(=O)n2C)c1C` (single isomer, unassigned) [Example 69 D2E2], the results for the half-maximal inhibitory concentration (IC50) in assay [1] and in assay [2] were above 10 nM and 1 to 10 nM, respectively. In addition, the “hTREX1 vs hTREX2 selectivity” value in assay [3] was “B (B = 25 to 50-fold selective for hTREX1)”.

As to `COCCn1cc(C(c2cc(F)c(F)cc2Cl)C(C)c2nc(C(=O)Nc3cnoc3)c(O)c(=O)n2C)cn1` (single isomer, unassigned) [Example 73 D1E1], the IC50 in assay [1] was 1 to 10 nM; in assay [2], below 1 nM. The “hTREX1 vs hTREX2 selectivity” value in assay [3] is recorded as “C (C = >50 fold selective for hTREX1)”.

For the molecule `CC(c1nc(C(=O)Nc2cnoc2)c(O)c(=O)n1C)C(c1cnn(C)c1)c1ccccc1Cl` (single isomer, unassigned) [Example 77 D2E2], the IC50 in assay [1] and in assay [2] was above 10 nM in each case. Besides, the “hTREX1 vs hTREX2 selectivity” value in assay [3] is on record as “A (A = <25 fold selective for hTREX1)”.
